Laboratory results: publication PMC6222422, “Synthesis and Biological Evaluation of Novel Indole-Derived Thioureas” (Molecules : A Journal of Synthetic Chemistry and Natural …, 2018)

Experiments:
S. aureus ATCC 25923 [1] = experiment: MIC, twofold serial agar dilution; assay type: cell-based; conditions: Staphylococcus aureus, ATCC25923, 18 h, 35 °C, read-out: minimal inhibitory concentrations (MIC)
S. aureus ATCC 6538 = experiment: MIC, twofold serial agar dilution; assay type: cell-based; conditions: Staphylococcus aureus, ATCC6538, 18 h, 35 °C, read-out: minimal inhibitory concentrations (MIC)
S. aureus ATCC 29213 [2] = experiment: MIC, twofold serial agar dilution; assay type: cell-based; conditions: Staphylococcus aureus, ATCC29213, 18 h, 35 °C, read-out: minimal inhibitory concentrations (MIC)
[3] = test system: S. epidermidis ATCC 12228; experiment: MIC, twofold serial agar dilution; assay type: cell-based; conditions: Staphylococcus epidermidis, ATCC12228, 18 h, 35 °C, read-out: minimal inhibitory concentrations (MIC)
B. subtilis ATCC 6633 [4] = experiment: MIC, twofold serial agar dilution; assay type: cell-based; conditions: Bacillus subtilis, ATCC6633, 18 h, 35 °C, read-out: minimal inhibitory concentrations (MIC)
M. luteus ATCC 9341 [5] = experiment: MIC, twofold serial agar dilution; assay type: cell-based; conditions: Micrococcus luteus, ATCC9341, 18 h, 35 °C, read-out: minimal inhibitory concentrations (MIC)
M. luteus ATCC 10240 [6] = experiment: MIC, twofold serial agar dilution; assay type: cell-based; conditions: Micrococcus luteus, ATCC10240, 18 h, 35 °C, read-out: minimal inhibitory concentrations (MIC)
S. aureus NCTC 4163 = experiment: disc diffusion method; assay type: cell-based, Staphylococcus aureus; conditions: Staphylococcus aureus, NCTC4163, applied 400 µg per disc, dash = lack of the growth inhibition area, read-out: diameter of growth inhibitory zone (GIZ)
S. aureus ATCC 25923 [7] = experiment: disc diffusion method; assay type: cell-based, Staphylococcus aureus; conditions: Staphylococcus aureus, ATCC25923, applied 400 µg per disc, dash = lack of the growth inhibition area, read-out: diameter of growth inhibitory zone (GIZ)
S. aureus ATCC 29213 [8] = experiment: disc diffusion method; assay type: cell-based, Staphylococcus aureus; conditions: Staphylococcus aureus, ATCC29213, applied 400 µg per disc, dash = lack of the growth inhibition area, read-out: diameter of growth inhibitory zone (GIZ)
[9] = test system: S. epidermidis ATCC 12228; experiment: disc diffusion method; assay type: cell-based, Staphylococcus epidermidis; conditions: Staphylococcus epidermidis, ATCC12228, applied 400 µg per disc, dash = lack of the growth inhibition area, read-out: diameter of growth inhibitory zone (GIZ)
B. subtilis ATCC 6633 [10] = experiment: disc diffusion method; assay type: cell-based, Bacillus subtilis; conditions: Bacillus subtilis, ATCC6633, applied 400 µg per disc, dash = lack of the growth inhibition area, read-out: diameter of growth inhibitory zone (GIZ)
B. cereus ATCC 11778 = experiment: disc diffusion method; assay type: cell-based, Bacillus cereus; conditions: Bacillus cereus, ATCC11778, applied 400 µg per disc, dash = lack of the growth inhibition area, read-out: diameter of growth inhibitory zone (GIZ)
M. luteus ATCC 9341 [11] = experiment: disc diffusion method; assay type: cell-based, Micrococcus luteus; conditions: Micrococcus luteus, ATCC9341, applied 400 µg per disc, dash = lack of the growth inhibition area, read-out: diameter of growth inhibitory zone (GIZ)
M. luteus ATCC 10240 [12] = experiment: disc diffusion method; assay type: cell-based, Micrococcus luteus; conditions: Micrococcus luteus, ATCC10240, applied 400 µg per disc, dash = lack of the growth inhibition area, read-out: diameter of growth inhibitory zone (GIZ)
YFV = experiment: microbe, parasite or virus in culture; assay type: cell-based; conditions: Yellow fever virus, BHK, read-out: YFV EC50
CV-B5 = experiment: microbe, parasite or virus in culture; assay type: cell-based, coxsackievirus B5; conditions: Enterovirus B, CVB5, Vero 76, read-out: CV-B5 EC50
Sb-1 = experiment: microbe, parasite or virus in culture; assay type: cell-based, poliovirus type-1; conditions: Enterovirus C, Vero 76, read-out: Sb-1 EC50
Reo-1 = experiment: microbe, parasite or virus in culture; assay type: cell-based, reovirus type-1; conditions: Reovirus sp., BHK, read-out: Reo-1 EC50
RSV = experiment: microbe, parasite or virus in culture; assay type: cell-based, human respiratory syncytial virus; conditions: human respiratory syncytial virus, Vero 76, read-out: RSV EC50
HSV-1 = experiment: microbe, parasite or virus in culture; assay type: cell-based, human herpes 1; conditions: Human alphaherpesvirus 1, Vero 76, read-out: HSV-1 EC50
in vitro [13] = conditions: cattle (Bos taurus)
in vitro [14] = conditions: African green monkey (Cercopithecus aethiops)
[15] = test system: hospital methicillin-susceptible strains of S. aureus (MSSA); experiment: MIC against hospital strains; conditions: Staphylococcus aureus
[16] = test system: methicillin-resistant strains of S. aureus (MRSA); experiment: MIC against hospital strains; conditions: Staphylococcus aureus
S. epidermidis (MRSE) = experiment: MIC against hospital strains; conditions: Staphylococcus epidermidis
[17] = hospital S. aureus MSSA strain 440/11
[18] = hospital S. aureus MSSA strain 441/11
[19] = hospital S. aureus MSSA strain 442/11
[20] = hospital S. aureus MSSA strain 443/11
[21] = hospital S. aureus MSSA strain 444/11
[22] = hospital S. aureus MSSA strain 445/11
[23] = hospital S. aureus MSSA strain 446/11
[24] = hospital S. aureus MSSA strain 447/11
[25] = hospital S. aureus MSSA strain 448/11
[26] = hospital S. aureus MSSA strain 449/11
[27] = hospital S. aureus MRSA strain 389/10
[28] = hospital S. aureus MRSA strain 390/10
[29] = hospital S. aureus MRSA strain 391/10
[30] = hospital S. aureus MRSA strain 392/10
[31] = hospital S. aureus MRSA strain 393/10
[32] = hospital S. aureus MRSA strain 394/10
[33] = hospital S. aureus MRSA strain 399/10
[34] = hospital S. aureus MRSA strain 450/11
[35] = hospital S. aureus MRSA strain 451/11
[36] = hospital S. aureus MRSA strain 452/11
[37] = hospital S. epidermidis MRSE strain 430/11
[38] = hospital S. epidermidis MRSE strain 431/11
[39] = hospital S. epidermidis MRSE strain 432/11
[40] = hospital S. epidermidis MRSE strain 433/11
[41] = hospital S. epidermidis MRSE strain 434/11
[42] = hospital S. epidermidis MRSE strain 435/11
[43] = hospital S. epidermidis MRSE strain 436/11
[44] = hospital S. epidermidis MRSE strain 437/11
[45] = hospital S. epidermidis MRSE strain 438/11
[46] = hospital S. epidermidis MRSE strain 439/11

S=C(NCCc1c[nH]c2ccccc12)Nc1ccc(Cl)c(Cl)c1 [Compound 6, 1-(2-(1H-indol-3-yl)ethyl)-3-(3,4-dichlorophenyl)thiourea]
> 13 µM: EC50 (CV-B5) | EC50 (Sb-1) | EC50 (RSV) | EC50 (HSV-1)
168 to 169 °C: melting point
6.25 µg/mL: MIC (S. aureus ATCC 25923 [1]) | MIC (S. aureus ATCC 29213 [2]) | MIC (M. luteus ATCC 10240 [6]) | MIC [15, 17] | MIC [15, 18] | MIC [15, 19] | MIC [15, 20] | MIC [15, 21] | MIC [15, 22] | MIC [15, 23] | MIC [15, 24] | MIC [15, 25] | MIC [15, 26] | MIC [16, 27] | MIC [16, 28] | MIC [16, 29] | MIC [16, 30] | MIC [16, 31] | MIC [16, 32] | MIC [16, 33] | MIC [16, 34] | MIC [16, 35] | MIC [16, 36] | MIC (S. epidermidis (MRSE); [37]) | MIC (S. epidermidis (MRSE); [38]) | MIC (S. epidermidis (MRSE); [39]) | MIC (S. epidermidis (MRSE); [40]) | MIC (S. epidermidis (MRSE); [42]) | MIC (S. epidermidis (MRSE); [43]) | MIC (S. epidermidis (MRSE); [44]) | MIC (S. epidermidis (MRSE); [45]) | MIC (S. epidermidis (MRSE); [46])
16 mm: zone of inhibition at 400 µg/disc [9]
10 mm: zone of inhibition at 400 µg/disc (S. aureus NCTC 4163)
13 µM: CC50 (in vitro [14])
> 10 µM: EC50 (YFV) | EC50 (Reo-1)
23 mm: zone of inhibition at 400 µg/disc (M. luteus ATCC 10240 [12])
27 µM: CC50 (in vitro [13])
12.5 µg/mL: MIC (S. aureus ATCC 6538) | MIC [3] | MIC (B. subtilis ATCC 6633 [4]) | MIC (M. luteus ATCC 9341 [5]) | MIC (S. epidermidis (MRSE); [41])
15 mm: zone of inhibition at 400 µg/disc (S. aureus ATCC 25923 [7]) | zone of inhibition at 400 µg/disc (S. aureus ATCC 29213 [8]) | zone of inhibition at 400 µg/disc (B. subtilis ATCC 6633 [10]) | zone of inhibition at 400 µg/disc (B. cereus ATCC 11778) | zone of inhibition at 400 µg/disc (M. luteus ATCC 9341 [11])

S=C(NCCc1c[nH]c2ccccc12)Nc1cccc(Cl)c1 [Compound 14, 1-(2-(1H-Indol-3-yl)ethyl)-3-(3-chlorophenyl)thiourea]
32 µM: CC50 (in vitro [13]) | CC50 (in vitro [14])
12.5 µg/mL: MIC (M. luteus ATCC 10240 [6]) | MIC [15, 21]
9 ± 1.2 µM: EC50 (CV-B5)
200 µg/mL: MIC (M. luteus ATCC 9341 [5])
50 µg/mL: MIC (S. aureus ATCC 25923 [1]) | MIC (S. aureus ATCC 6538) | MIC (S. aureus ATCC 29213 [2]) | MIC [3] | MIC (B. subtilis ATCC 6633 [4]) | MIC (S. epidermidis (MRSE); [43]) | MIC (S. epidermidis (MRSE); [45])
> 6 µM: EC50 (YFV) | EC50 (Reo-1)
6.25 µg/mL: MIC (S. epidermidis (MRSE); [38])
14 mm: zone of inhibition at 400 µg/disc (S. aureus ATCC 25923 [7])
169 to 171 °C: melting point
25 µg/mL: MIC [15, 17] | MIC [15, 18] | MIC [15, 19] | MIC [15, 20] | MIC [15, 22] | MIC [15, 23] | MIC [15, 24] | MIC [15, 25] | MIC [15, 26] | MIC [16, 27] | MIC [16, 28] | MIC [16, 29] | MIC [16, 30] | MIC [16, 31] | MIC [16, 32] | MIC [16, 33] | MIC [16, 34] | MIC [16, 35] | MIC [16, 36] | MIC (S. epidermidis (MRSE); [37]) | MIC (S. epidermidis (MRSE); [39]) | MIC (S. epidermidis (MRSE); [40]) | MIC (S. epidermidis (MRSE); [41]) | MIC (S. epidermidis (MRSE); [42]) | MIC (S. epidermidis (MRSE); [44]) | MIC (S. epidermidis (MRSE); [46])
15 mm: zone of inhibition at 400 µg/disc (S. aureus ATCC 29213 [8]) | zone of inhibition at 400 µg/disc (B. cereus ATCC 11778)
12 mm: zone of inhibition at 400 µg/disc [9] | zone of inhibition at 400 µg/disc (B. subtilis ATCC 6633 [10]) | zone of inhibition at 400 µg/disc (M. luteus ATCC 9341 [11])
> 32 µM: EC50 (Sb-1) | EC50 (RSV) | EC50 (HSV-1)
20 mm: zone of inhibition at 400 µg/disc (M. luteus ATCC 10240 [12])
13 mm: zone of inhibition at 400 µg/disc (S. aureus NCTC 4163)
